In patent publication EP2380575B1, “Eslicarbazepine acetate and use” (Bial-Portela & CA, S.A., priority 2005, dated 2006):
Read-outs that look alike come from different tables or passages of the source.

How the values were obtained:
clinical = details: both, human, plasma, po, 900 mg
[1] = for share of total systemic drug exposure (as assessed by AUC0-24): 8 days multiple administration
[2] = Trial B: pharmacokinetics following single and repeated doses in healthy young male subjects; assay type: in vivo, humans; details: for AUC(0-t) / half-life / Cmax / Tmax: male, human, oral; for AUC(0-t): read-out: Mean AUC0-24h (%CV); for half-life: read-out: Mean apparent t½ (%CV) (converted); for Cmax: read-out: Mean Cmax (%CV)
Method: The study integrated the results of three double-blind, randomized, placebo-controlled trials. To measure the pharmacokinetics of eslicarbazepine acetate following single doses, oral single doses of eslicarbazepine acetate ranging from 20 mg to 2400 mg were administered to healthy young male subjects (6 subjects per dose). The pharmacokinetics of eslicarbazepine acetate following repeated doses were measured by administering repeated oral doses ranging from 400 mg to 2400 mg of eslicarbazepine acetate to healthy young male subjects (6 subjects per dose) over a period of 8 days. Analytical test methods and experimental procedures were similar to those described for Trial A above.

[3] = multiple oral dose of 900 mg eslicarbazepine acetate once-daily, last dose, arithmetic mean
[4] = multiple oral dose of 900 mg eslicarbazepine acetate twice-daily (as titled), last dose, arithmetic mean
[5] = multiple oral dose of 900 mg eslicarbazepine acetate twice-daily (as titled), last dose, arithmetic mean, listed as Eslicarbazepine
[6] = in vivo, 50 mg, single dose 50 mg eslicarbazepine acetate, n=6
[7] = in vivo, 100 mg, single dose 100 mg eslicarbazepine acetate, n=6
[8] = in vivo, 200 mg, single dose 200 mg eslicarbazepine acetate, n=6
[9] = in vivo, 400 mg, last dose of 8-day repeated 400 mg o.d. eslicarbazepine acetate, n=6
[10] = in vivo, 400 mg, single dose 400 mg eslicarbazepine acetate, n=6
[11] = in vivo, 600 mg, single dose 600 mg eslicarbazepine acetate, n=6
[12] = in vivo, 800 mg, last dose of 8-day repeated 800 mg o.d. eslicarbazepine acetate, n=6
[13] = in vivo, 900 mg, single dose 900 mg eslicarbazepine acetate, n=6
[14] = in vivo, 1200 mg, last dose of 8-day repeated 1200 mg o.d. eslicarbazepine acetate, n=6
[15] = in vivo, 1200 mg, single dose 1200 mg eslicarbazepine acetate, n=6
[16] = in vivo, 1800 mg, last dose of 8-day repeated 1800 mg o.d. eslicarbazepine acetate, n=6
[17] = in vivo, 2400 mg, last dose of 8-day repeated 2400 mg o.d. eslicarbazepine acetate, n=6
[18] = plasma, 20 mg, single dose 20 mg eslicarbazepine acetate, n=6
[19] = plasma, 1800 mg, single dose 1800 mg eslicarbazepine acetate, n=6
[20] = plasma, 2400 mg, single dose 2400 mg eslicarbazepine acetate, n=6

With `NC(=O)N1c2ccccc2C[C@H](O)c2ccccc21` [eslicarbazepine] the AUC(0-inf) (clinical) was 389 µg·h/mL, the AUC(0-t) (clinical) was 382 µg·h/mL and the Cmax (clinical) was 22200 ng/mL. The Tmax (clinical) was 2.45 h, the half-life (clinical) was 9.12 h and the “total exposure in the once-daily group higher than in the twice-daily group” value ([1]; healthy volunteers, 900 mg daily) was “at least 26%”. The Tmax ([1]; multiple oral dose of 900 mg eslicarbazepine acetate once-daily, last dose) was 2.45 h, the AUC(0-t) [1, 3] was 381601 ng·h/mL and the Cmax [1, 3] was 22210 ng/mL. The AUC0-τ ([1]; multiple oral dose of 900 mg eslicarbazepine acetate once-daily, last dose, dosing interval 24 hours) was 294.019 µg·h/mL, the Tmax ([1]; multiple oral dose of 900 mg eslicarbazepine acetate twice-daily (as titled), last dose) was 2.09 h and the “AUC0-∞” value [1, 4] was 289.792 µg·h/mL. The AUC(0-t) [1, 4] was 283,014 ng·h/mL, the Cmax [1, 4] was 16,667 ng/mL and the t1/2 [1, 4] was 9.17 h. The AUC(0-t) [1, 5] was 283014 ng·h/mL, the Cmax [1, 5] was 16667 ng/mL and the AUC0-τ ([1]; multiple oral dose of 900 mg eslicarbazepine acetate twice-daily (as titled), last dose, dosing interval 12 hours) was 142.08 µg·h/mL. The “share of total systemic drug exposure (as assessed by AUC0-24)” value ([1]; once-daily subjects) was “approximately 95%”, the “share of total systemic drug exposure (as assessed by AUC0-24)” value ([1]; twice-daily subjects) was about 96% and the mean AUC0-24h ([2]; 400 mg once-daily doses of eslicarbazepine acetate) was 126 µg·h/mL. The mean AUC0-24h ([2]; 2400 mg once-daily doses of eslicarbazepine acetate) was 906 µg·h/mL, the “Median tmax (range)” value ([2]; last dose of 8-day repeated 400 mg o.d. eslicarbazepine acetate, n=6) was 3 (0.5-7) h and the “Median tmax (range)” value ([2]; last dose of 8-day repeated 800 mg o.d. eslicarbazepine acetate, n=6) was 3.5 (1-7) h. The “Median tmax (range)” value ([2]; last dose of 8-day repeated 1200 mg o.d. eslicarbazepine acetate, n=6) was 3 (0.5-6) h, the “Median tmax (range)” value ([2]; last dose of 8-day repeated 1800 mg o.d. eslicarbazepine acetate, n=6) was 2 (0.5-4) h and the “Median tmax (range)” value ([2]; last dose of 8-day repeated 2400 mg o.d. eslicarbazepine acetate, n=6) was 2 (1.5-8) h. For the same compound, the “mean Cmax” value ([2]; last dose, repeated once daily 400 mg doses of eslicarbazepine acetate) was 8,800 ng/ML, the “mean Cmax” value ([2]; last dose, repeated once daily 2400 mg doses of eslicarbazepine acetate) was 56,500 ng/ML and the AUC(0-t) [2, 6] was 6.7 µg·h/mL. For the same compound, the half-life [2, 6] was 8.1 h, the AUC(0-t) [2, 7] was 16.4 µg·h/mL and the Cmax [2, 7] was 1500 ng/mL. The half-life [2, 7] was 9.3 h, the AUC(0-t) [2, 8] was 30.5 µg·h/mL and the Cmax [2, 8] was 2900 ng/mL. It also gave a half-life [2, 8] of 8.4 h, an AUC(0-t) [2, 9] of 126 µg·h/mL and a Cmax [2, 9] of 8800 ng/mL. For the same compound, the half-life [2, 9] was 9.5 h, the AUC(0-t) [2, 10] was 81.5 µg·h/mL and the Cmax [2, 10] was 5200 ng/mL. It also gave a half-life [2, 10] of 11.7 h, an AUC(0-t) [2, 11] of 120 µg·h/mL and a Cmax [2, 11] of 8500 ng/mL. It also gave a half-life [2, 11] of 12.3 h, an AUC(0-t) [2, 12] of 268 µg·h/mL and a Cmax [2, 12] of 18700 ng/mL. For the same compound, the half-life [2, 12] was 12.3 h, the AUC(0-t) [2, 13] was 210 µg·h/mL and the Cmax [2, 13] was 15000 ng/mL. The half-life [2, 13] was 16.3 h, the AUC(0-t) [2, 14] was 423 µg·h/mL and the Cmax [2, 14] was 25500 ng/mL. It also gave a half-life [2, 14] of 13.1 h, an AUC(0-t) [2, 15] of 286 µg·h/mL and a Cmax [2, 15] of 18600 ng/mL. For the same compound, the half-life [2, 15] was 16.5 h, the AUC(0-t) [2, 16] was 740 µg·h/mL and the Cmax [2, 16] was 47700 ng/mL. For the same compound, the half-life [2, 16] was 11.3 h, the AUC(0-t) [2, 17] was 906 µg·h/mL and the Cmax [2, 17] was 56500 ng/mL. For the same compound, the half-life [2, 17] was 10.4 h, the Tmax ([2]; in vivo, single dose 50 mg eslicarbazepine acetate, n=6, read-out: Median tmax (range)) was 0.8 h and the Tmax ([2]; in vivo, single dose 100 mg eslicarbazepine acetate, n=6, read-out: Median tmax (range)) was 1.5 h. For the same compound, the Tmax ([2]; in vivo, single dose 200 mg eslicarbazepine acetate, n=6, read-out: Median tmax (range)) was 1.5 h, the Tmax ([2]; in vivo, single dose 400 mg eslicarbazepine acetate, n=6, read-out: Median tmax (range)) was 4 h and the Tmax ([2]; in vivo, single dose 600 mg eslicarbazepine acetate, n=6, read-out: Median tmax (range)) was 4 h. For the same compound, the Tmax ([2]; in vivo, single dose 900 mg eslicarbazepine acetate, n=6, read-out: Median tmax (range)) was 2.3 h, the Tmax ([2]; in vivo, single dose 1200 mg eslicarbazepine acetate, n=6, read-out: Median tmax (range)) was 4 h and the AUC(0-t) [2, 18] was 2.4 µg·h/mL. It also gave a Cmax [2, 18] of 300 ng/mL, a half-life [2, 18] of 9.1 h and a Cmax ([2]; plasma, 50 mg, single dose 50 mg eslicarbazepine acetate, n=6) of 900 ng/mL. The AUC(0-t) [2, 19] was 508 µg·h/mL, the Cmax [2, 19] was 34600 ng/mL and the half-life [2, 19] was 11.8 h. For the same compound, the AUC(0-t) [2, 20] was 0.446 µg·h/mL, the Cmax [2, 20] was 35900 ng/mL and the half-life [2, 20] was 11.1 h. For the same compound, the Tmax ([2]; plasma, last dose, repeated once daily, all dosages, read-out: median tmax) was 2 to 3.5 h, the Tmax ([2]; plasma, single dose 20 mg eslicarbazepine acetate, n=6, read-out: Median tmax (range)) was 0.8 h and the Tmax ([2]; plasma, single dose 1800 mg eslicarbazepine acetate, n=6, read-out: Median tmax (range)) was 3.5 h. It also gave a Tmax ([2]; plasma, single dose 2400 mg eslicarbazepine acetate, n=6, read-out: Median tmax (range)) of 3 h.
